Measured values reported in PubChem BioAssay (NCI).
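Exposure lasted 48 hours, with cells grown in 96-well plates and compounds tested at five concentrations. Definition used: TGI = concentration required for complete inhibition of growth.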

Legend:
Test in all cases: growth of human tumour cells (NCI), 48 h
MDA-MB-231 breast = tested on: MDA-MB-231 breast
IGROV1 ovarian = tested on: IGROV1 ovarian
SN12C renal = tested on: SN12C renal
NCI/ADR-RES ovarian = tested on: NCI/ADR-RES ovarian
NCI-H23 lung = tested on: NCI-H23 lung
MCF7 breast = tested on: MCF7 breast
SK-MEL-5 melanoma = tested on: SK-MEL-5 melanoma
NCI-H226 lung = tested on: NCI-H226 lung
SR leukemia = tested on: SR leukemia
MALME-3M melanoma = tested on: MALME-3M melanoma
TK-10 renal = tested on: TK-10 renal
U251 CNS = tested on: U251 CNS
UO-31 renal = tested on: UO-31 renal
SK-MEL-2 melanoma = tested on: SK-MEL-2 melanoma
HCT-15 colon = tested on: HCT-15 colon
DU-145 prostate = tested on: DU-145 prostate
SW-620 colon = tested on: SW-620 colon
NCI-H460 lung = tested on: NCI-H460 lung
786-0 renal = tested on: 786-0 renal
UACC-257 melanoma = tested on: UACC-257 melanoma
CAKI-1 renal = tested on: CAKI-1 renal
NCI-H522 lung = tested on: NCI-H522 lung
RPMI-8226 leukemia = tested on: RPMI-8226 leukemia
MDA-MB-435 = tested on: MDA-MB-435
ACHN renal = tested on: ACHN renal
OVCAR-4 ovarian = tested on: OVCAR-4 ovarian
SF-295 CNS = tested on: SF-295 CNS
T-47D breast = tested on: T-47D breast
RXF 393 renal = tested on: RXF 393 renal
MOLT-4 leukemia = tested on: MOLT-4 leukemia
SK-MEL-28 melanoma = tested on: SK-MEL-28 melanoma
SNB-19 CNS = tested on: SNB-19 CNS
A549 NSCLC = tested on: A549 NSCLC
SF-539 CNS = tested on: SF-539 CNS
UACC-62 melanoma = tested on: UACC-62 melanoma
BT-549 breast = tested on: BT-549 breast
HT29 colon = tested on: HT29 colon
SNB-75 CNS = tested on: SNB-75 CNS
PC-3 prostate = tested on: PC-3 prostate
HOP-62 NSCLC = tested on: HOP-62 NSCLC
K-562 leukemia = tested on: K-562 leukemia
KM12 colon = tested on: KM12 colon
SK-OV-3 ovarian = tested on: SK-OV-3 ovarian
COLO 205 colon = tested on: COLO 205 colon
OVCAR-5 ovarian = tested on: OVCAR-5 ovarian
LOX IMVI melanoma = tested on: LOX IMVI melanoma
M14 melanoma = tested on: M14 melanoma
MDA-N = tested on: MDA-N
HCT-116 colon = tested on: HCT-116 colon
OVCAR-8 ovarian = tested on: OVCAR-8 ovarian
OVCAR-3 ovarian = tested on: OVCAR-3 ovarian
HCC-2998 colon = tested on: HCC-2998 colon
EKVX NSCLC = tested on: EKVX NSCLC
HS 578T breast = tested on: HS 578T breast
SF-268 CNS = tested on: SF-268 CNS
HOP-92 NSCLC = tested on: HOP-92 NSCLC
CCRF-CEM leukemia = tested on: CCRF-CEM leukemia

## O=C1c2ccccc2-c2c1c1ccccc1c(=O)n2-c1cccnc1
MDA-MB-231 breast
  TGI: > 100 µM
IGROV1 ovarian
  TGI: > 100 µM
SN12C renal
  TGI: > 100 µM
NCI/ADR-RES ovarian
  TGI: > 100 µM
NCI-H23 lung
  TGI: > 100 µM
MCF7 breast
  TGI: > 100 µM
SK-MEL-5 melanoma
  TGI: > 100 µM
NCI-H226 lung
  TGI: > 100 µM
SR leukemia
  TGI: > 100 µM
MALME-3M melanoma
  TGI: > 100 µM
TK-10 renal
  TGI: > 100 µM
U251 CNS
  TGI: > 100 µM
UO-31 renal
  TGI: > 100 µM
SK-MEL-2 melanoma
  TGI: > 100 µM
HCT-15 colon
  TGI: > 100 µM
DU-145 prostate
  TGI: > 100 µM
SW-620 colon
  TGI: > 100 µM
NCI-H460 lung
  TGI: > 100 µM
786-0 renal
  TGI: 44.7 µM
UACC-257 melanoma
  TGI: > 100 µM
CAKI-1 renal
  TGI: > 100 µM
NCI-H522 lung
  TGI: 39.3 µM
RPMI-8226 leukemia
  TGI: > 100 µM
MDA-MB-435
  TGI: > 100 µM
ACHN renal
  TGI: > 100 µM
OVCAR-4 ovarian
  TGI: > 100 µM
SF-295 CNS
  TGI: > 100 µM
T-47D breast
  TGI: > 100 µM
RXF 393 renal
  TGI: > 100 µM
MOLT-4 leukemia
  TGI: > 28.4 µM
SK-MEL-28 melanoma
  TGI: > 100 µM
SNB-19 CNS
  TGI: > 100 µM
A549 NSCLC
  TGI: > 100 µM
SF-539 CNS
  TGI: > 71.1 µM
UACC-62 melanoma
  TGI: > 85.8 µM
BT-549 breast
  TGI: > 100 µM
HT29 colon
  TGI: > 100 µM
SNB-75 CNS
  TGI: > 100 µM
PC-3 prostate
  TGI: > 100 µM
HOP-62 NSCLC
  TGI: 41.8 µM
K-562 leukemia
  TGI: > 100 µM
KM12 colon
  TGI: > 100 µM
SK-OV-3 ovarian
  TGI: > 100 µM
COLO 205 colon
  TGI: > 100 µM
OVCAR-5 ovarian
  TGI: > 100 µM
LOX IMVI melanoma
  TGI: > 100 µM
M14 melanoma
  TGI: > 100 µM
MDA-N
  TGI: > 100 µM
HCT-116 colon
  TGI: > 100 µM
OVCAR-8 ovarian
  TGI: > 100 µM
OVCAR-3 ovarian
  TGI: > 100 µM
HCC-2998 colon
  TGI: > 100 µM
EKVX NSCLC
  TGI: > 100 µM
HS 578T breast
  TGI: > 100 µM
SF-268 CNS
  TGI: > 100 µM

## COC(=O)CNC(=O)c1cc(C)cc2c1Oc1c(cc(C)cc1C(=O)NCC(=O)OC)S2
MDA-MB-231 breast
  TGI: > 100 µM
IGROV1 ovarian
  TGI: > 100 µM
HOP-92 NSCLC
  TGI: 57.2 µM
SN12C renal
  TGI: > 100 µM
NCI/ADR-RES ovarian
  TGI: > 100 µM
NCI-H23 lung
  TGI: > 100 µM
MCF7 breast
  TGI: > 100 µM
NCI-H226 lung
  TGI: > 100 µM
SR leukemia
  TGI: > 100 µM
MALME-3M melanoma
  TGI: 40.7 µM
TK-10 renal
  TGI: > 100 µM
U251 CNS
  TGI: > 100 µM
SK-MEL-2 melanoma
  TGI: > 100 µM
HCT-15 colon
  TGI: > 100 µM
DU-145 prostate
  TGI: > 100 µM
SW-620 colon
  TGI: > 100 µM
786-0 renal
  TGI: > 100 µM
UACC-257 melanoma
  TGI: > 100 µM
CAKI-1 renal
  TGI: > 100 µM
CCRF-CEM leukemia
  TGI: > 100 µM
NCI-H522 lung
  TGI: > 100 µM
RPMI-8226 leukemia
  TGI: > 100 µM
MDA-MB-435
  TGI: > 100 µM
ACHN renal
  TGI: 58.4 µM
OVCAR-4 ovarian
  TGI: > 100 µM
SF-295 CNS
  TGI: > 100 µM
T-47D breast
  TGI: > 100 µM
RXF 393 renal
  TGI: 69.4 µM
MOLT-4 leukemia
  TGI: > 100 µM
SK-MEL-28 melanoma
  TGI: > 100 µM
SNB-19 CNS
  TGI: > 100 µM
A549 NSCLC
  TGI: > 100 µM
SF-539 CNS
  TGI: 43.7 µM
UACC-62 melanoma
  TGI: > 100 µM
BT-549 breast
  TGI: > 100 µM
HT29 colon
  TGI: > 100 µM
SNB-75 CNS
  TGI: > 100 µM
PC-3 prostate
  TGI: > 100 µM
HOP-62 NSCLC
  TGI: > 100 µM
K-562 leukemia
  TGI: > 100 µM
KM12 colon
  TGI: > 100 µM
SK-OV-3 ovarian
  TGI: > 100 µM
COLO 205 colon
  TGI: 70.9 µM
OVCAR-5 ovarian
  TGI: > 100 µM
LOX IMVI melanoma
  TGI: > 100 µM
M14 melanoma
  TGI: > 100 µM
MDA-N
  TGI: > 100 µM
HCT-116 colon
  TGI: > 100 µM
OVCAR-8 ovarian
  TGI: > 100 µM
OVCAR-3 ovarian
  TGI: > 100 µM
HCC-2998 colon
  TGI: > 100 µM
EKVX NSCLC
  TGI: > 100 µM
HS 578T breast
  TGI: > 100 µM
SF-268 CNS
  TGI: > 100 µM
